Measured values as given in PMC7822874, “Chemoprotective antimalarials identified through quantitative high-throughput screening of Plasmodium blood and liver stage parasites” (Scientific Reports, 2021).
Converted amounts (≈) assume the structure as drawn. Read-outs that look alike come from different tables or passages of the source.

Key:
[1] = test system: P. falciparum Dd2 cytochrome b mutant lines; experiment: Drug response of drug-selected cytochrome b mutant lines versus parental Dd2-B2 (panel); format: cell-based, Plasmodium falciparum; details: all cytochrome b mutant lines vs Dd2-B2
Protocol: As resistance selection studies implicated the parasite cytochrome bc1 complex in mediating reduced parasite susceptibility to both NCGC00473217 and NCGC00374598, we leveraged these drug-selected parasites to test for altered drug response to a panel of antimalarial compounds.
The P. falciparum parasite Dd2 line was cultured in vitro using standard conditions. […] Tissue culture flasks and assay plates were incubated at 37 °C under a gas mixture of 5% CO2, 5% O2 and 90% N2. […] Significant differences were assessed using two-sided Student’s t-tests. All HTS assays were stopped and read at 72 h. Percent response values represent relative growth as judged by SYBR Green-I fluorescence intensity values normalized to controls.

[2] = test system: P. falciparum Dd2 Cytb G131S; experiment: SYBR Green ABS proliferation assay, NCGC00374598 selected clone C11; format: cell-based, Plasmodium falciparum; details: Plasmodium falciparum
Method in brief: (§1)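 Drug-selected Dd2 clones bearing the cytochrome b mutation were cultured at 37 °C under 5% CO2, 5% O2, 90% N2. Growth was read at 72 h by SYBR Green-I fluorescence, normalized to controls as percent response.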

[3] = test system: P. falciparum Dd2 Cytb A122D; experiment: SYBR Green ABS proliferation assay, NCGC00473217 selected clone F12; format: cell-based, Plasmodium falciparum; details: Plasmodium falciparum
Method in brief: as §1

[4] = test system: P. falciparum Dd2 Cytb F123L; experiment: SYBR Green ABS proliferation assay, NCGC00473217 selected clone G08; format: cell-based, Plasmodium falciparum; details: Plasmodium falciparum
Method in brief: as §1

[5] = test system: P. falciparum Dd2 Cytb V259L; experiment: SYBR Green ABS proliferation assay, NCGC00473217 selected clone F06; format: cell-based, Plasmodium falciparum; details: Plasmodium falciparum
Method in brief: as §1

[6] = test system: P. falciparum Dd2 (clone B2) asexual blood stage parasites; experiment: P. falciparum Dd2 asexual blood stage SYBR Green-I 72 h proliferation assay (qHTS); format: cell-based, Plasmodium falciparum; details: Plasmodium falciparum
Aqueous solubility = format: physicochemical; details: aqueous media
Protocol: (§2) Pharmacokinetic modeling experiments, parallel artificial membrane permeability assay (PAMPA), solubility, and rat liver microsome stability assessment were performed on all synthetic compounds, as previously described[73]–[75].

[7] = Parallel artificial membrane permeability assay (PAMPA); format: in vitro ADME; details: for PAMPA pH7.4: pH 7.4
Protocol: as §2

[8] = Rat liver microsomal stability (RLMS); details: rat liver microsomes; for half-life: rat
Protocol: as §2

[9] = DD2, NCGC00374598 selected clone, read-out: AC50 Log[M] ± SD, Cytb G131S (converted)
[10] = DD2, NCGC00473217 selected clone, read-out: AC50 Log[M] ± SD, Cytb A122D (converted)
[11] = DD2, NCGC00473217 selected clone, read-out: AC50 Log[M] ± SD, Cytb F123L (converted)
[12] = DD2, NCGC00473217 selected clone, read-out: AC50 Log[M] ± SD, Cytb V259L (converted)
[13] = DD2, 72 h, SYBR Green 72 h, WT Dd2-B2, read-out: AC50 Log[M] ± SD, Dd2-B2 (parental line) (converted)
[14] = DD2, NCGC00374598 selected clone C11, read-out: AC50 [μM], Cytb G131S (converted)
[15] = DD2, NCGC00473217 selected clone F12, read-out: AC50 [μM], Cytb A122D (converted)
[16] = DD2, NCGC00473217 selected clone G08, highest concentration 29 µM, read-out: AC50 [μM], Cytb F123L (converted)
[17] = DD2, NCGC00473217 selected clone F06, read-out: AC50 [μM], Cytb V259L (converted)
[18] = DD2, 72 h, SYBR Green 72 h, approximate value in μM, read-out: AC50 [μM], Dd2-B2 (parental line) (converted)

| Structure (SMILES) | AC50 [2, 9] [M] | AC50 [3, 10] [M] | AC50 [5, 12] [M] | AC50 [6, 13] [M] | solubility (Aqueous solubility) [µg/mL] | AC50 [2, 14] [M] | PAMPA pH7.4 [7] | AC50 [3, 15] [M] | AC50 [4, 16] [M] | AC50 [5, 17] [M] | AC50 [6, 18] [M] | half-life [8] [min] | other results |
| --- | --- | --- | --- | --- | --- | --- | --- | --- | --- | --- | --- | --- | --- |
| CCN(CC)Cc1cc(Nc2ccnc3cc(Cl)ccc23)ccc1O [Amodiaquine, amodiaquine, reference compound] | 4.9e-08 | 6.61e-08 | 7.24e-08 | 4.68e-08 | – | – | – | – | – | – | – | – | change in susceptibility across drug-selected lines [1]: no observed change in susceptibility; AC50 ([2]; DD2, Suppl Table 6, read-out: AC50 (mM), Dd2 Cytb G131S): 4.91e-08 M; AC50 ([3]; DD2, Suppl Table 6, read-out: AC50 (mM), Dd2 Cytb A122D): 6.68e-08 M; AC50 [4, 11]: 5.5e-08 M; AC50 ([4]; DD2, Suppl Table 6, read-out: AC50 (mM), Dd2 Cytb F123L): 5.51e-08 M; AC50 ([5]; DD2, Suppl Table 6, read-out: AC50 (mM), Dd2 Cytb V259L): 7.21e-08 M; AC50 ([6]; DD2, Suppl Table 6, read-out: AC50 (mM), WT (Dd2-B2)): 4.73e-08 M |
| CCCN1C(CC(C)C)=NS(=O)(=O)c2cc(NC(=O)c3sccc3C)ccc21 [NCGC00521035] | 1.66e-06 | 2.82e-06 | 6.76e-06 | 1.58e-06 | < 1 | 1.65e-06 | 1597 1e-6 cm/s | 2.83e-06 | > 2.9e-05 | 6.84e-06 | 1.59e-06 | 3.4 | – |
| CC(C)CC1=NS(=O)(=O)c2cc(NC(=O)c3cccs3)ccc2N1C [NCGC00521057] | 2.24e-07 | – | – | 1.86e-06 | 1.6 (≈ 4.24 µM) | 2.25e-07 | 130 1e-6 cm/s | > 2.9e-05 | > 2.9e-05 | > 2.9e-05 | 1.85e-06 | > 30 | PAMPA permeability [7]: low permeability |
| CCCN1C(CC(C)C)=NS(=O)(=O)c2cc(NC(=O)c3ccsc3)ccc21 [NCGC00521157] | 2.09e-06 | – | – | 2e-06 | < 1 | 2.08e-06 | 178 1e-6 cm/s | > 2.9e-05 | > 2.9e-05 | > 2.9e-05 | 2e-06 | 3.7 | – |
| CCCN1C(CC(C)C)=NS(=O)(=O)c2cc(NC(=O)C3CCCC3)ccc21 [NCGC00521158] | 4.17e-06 | 5.25e-06 | 2.14e-06 | 2.69e-06 | < 1 | 4.15e-06 | 726 1e-6 cm/s | 5.25e-06 | 1.17e-05 | 2.16e-06 | 2.72e-06 | 4.8 | AC50 [4, 11]: 1.17e-05 M |
| CCCN1C(CC(C)C)=NS(=O)(=O)c2cc(NC(=O)c3ccc(F)s3)ccc21 [NCGC00523537] | 3.16e-07 | 7.94e-07 | 8.91e-07 | 1.12e-07 | < 1 | 3.17e-07 | 1480 1e-6 cm/s | 7.97e-07 | > 2.9e-05 | 8.94e-07 | 1.13e-07 | 4.4 | PAMPA permeability [7]: high permeability; RLMS T1/2 [8]: poor stability |
| CCCN1C(CC(C)C)=NS(=O)(=O)c2cc(NC(=O)c3sccc3F)ccc21 [NCGC00523542] | 1.78e-06 | 1.32e-06 | 5.37e-06 | 1.58e-06 | < 1 | 1.78e-06 | 770 1e-6 cm/s | 1.31e-06 | > 2.9e-05 | 5.43e-06 | 1.59e-06 | 4.6 | – |
| CCCN1C(CC(C)C)=NS(=O)(=O)c2cc(NC(=O)c3sccc3Cl)ccc21 [NCGC00531529] | 5.89e-07 | 6.03e-07 | 3.72e-06 | 2.24e-06 | < 1 | 5.86e-07 | 678 1e-6 cm/s | 6.03e-07 | > 2.9e-05 | 3.72e-06 | 2.25e-06 | 2.8 | – |
| CCCN1C(CC2CCCCC2)=NS(=O)(=O)c2cc(NC(=O)c3ccc(F)cc3)ccc21 [NCGC00532335] | 8.51e-07 | 3.31e-06 | – | 8.91e-07 | < 1 | 8.61e-07 | <1 1e-6 cm/s | 3.31e-06 | > 2.9e-05 | > 2.9e-05 | 8.94e-07 | > 30 | – |
| CCCN1C(CC2CCCCC2)=NS(=O)(=O)c2cc(NC(=O)c3cccs3)ccc21 [NCGC00532404] | 9.55e-07 | 1.51e-06 | 1.51e-06 | 3.55e-07 | < 1 | 9.66e-07 | – | 1.53e-06 | > 2.9e-05 | 1.5e-06 | 3.56e-07 | 3.4 | Papp ([7]; PAMPA): < 500 ×10⁻⁶ cm/s |
| CCCN1C(CC(C)C)=NS(=O)(=O)c2cc(NC(=O)Nc3nccs3)ccc21 [NCGC00537523] | 2.69e-06 | 9.33e-06 | 5.25e-06 | 2.14e-06 | 1.2 (≈ 2.85 µM) | 2.67e-06 | 113 1e-6 cm/s | 9.29e-06 | 9.56e-06 | 5.23e-06 | 2.16e-06 | 7.8 | AC50 [4, 11]: 9.55e-06 M |
| CCCN1C(CC2CCC2)=NS(=O)(=O)c2cc(NC(=O)c3cccs3)ccc21 [NCGC00537664] | 4.68e-07 | 1.35e-06 | 1.2e-06 | 4.47e-07 | < 1 | 4.66e-07 | – | 1.35e-06 | > 2.9e-05 | 1.19e-06 | 4.48e-07 | 4.3 | – |
| CC(C)CC1=NS(=O)(=O)c2cc(NC(=O)c3ccc(F)s3)ccc2N1C [NCGC00651708] | – | – | – | 1.66e-06 | < 1 | > 2.9e-05 | 3.07 1e-6 cm/s | > 2.9e-05 | > 2.9e-05 | > 2.9e-05 | 1.68e-06 | > 30 | RLMS T1/2 [8]: much better stability |
| CN1C(CC2CCCCC2)=NS(=O)(=O)c2cc(NC(=O)c3ccc(F)s3)ccc21 [NCGC00651709] | – | – | – | 1.48e-06 | < 1 | > 2.9e-05 | – | > 2.9e-05 | > 2.9e-05 | > 2.9e-05 | 1.5e-06 | 12.9 | – |
| CN1C(c2ccccc2)=NS(=O)(=O)c2cc(NC(=O)c3ccc(F)s3)ccc21 [NCGC00651712] | – | – | – | – | < 1 | > 2.9e-05 | – | > 2.9e-05 | > 2.9e-05 | > 2.9e-05 | > 2.9e-05 | > 30 | – |
| CC(C)CC1=NS(=O)(=O)c2cc(NC(=O)c3ccc(F)cc3)ccc2N1C [NCGC00651713] | – | – | – | – | < 1 | > 2.9e-05 | <1 1e-6 cm/s | > 2.9e-05 | > 2.9e-05 | > 2.9e-05 | > 2.9e-05 | > 30 | – |
| CN1C(CC2CCCCC2)=NS(=O)(=O)c2cc(NC(=O)c3ccc(F)cc3)ccc21 [NCGC00651716] | – | – | – | – | < 1 | > 2.9e-05 | – | > 2.9e-05 | > 2.9e-05 | > 2.9e-05 | > 2.9e-05 | 6.6 | – |
| CN1C(c2ccccc2)=NS(=O)(=O)c2cc(NC(=O)c3ccc(F)cc3)ccc21 [NCGC00651719] | – | – | – | – | < 1 | > 2.9e-05 | 3.25 1e-6 cm/s | > 2.9e-05 | > 2.9e-05 | > 2.9e-05 | > 2.9e-05 | > 30 | – |
| CCN(CC)CCCC(C)Nc1ccnc2cc(Cl)ccc12 (centres unmarked) [chloroquine] | – | – | – | – | – | – | – | – | – | – | – | – | change in susceptibility across drug-selected lines [1]: no observed change in susceptibility |
